In one assay the test system is T1, PPO II.
T1 construct: second isoenzyme
In words: quinone formation, absorbance at […] nm, Lineweaver-Burk. The assay is classed as biochemical, Lens culinaris. Conditions: TRIS-HCl 50 mM pH 6.5 (standard assay); 1-30 mM substrate; partially purified enzyme.

Another assay has as its system T2, PPO I.
T2 construct: first isoenzyme
The description is as above. The assay is classed as biochemical, Lens culinaris. Conditions: TRIS-HCl 50 mM pH 6.5 (standard assay); 1-30 mM substrate; partially purified enzyme.

For the molecule `Cc1ccc(O)c(O)c1` [4-methylcatechol], the Km in the assay on PPO II amounted to 3400 ± 150 µM; with PPO I, 3000 ± 140 µM.
For the molecule `O=C(O)/C=C/c1ccc(O)c(O)c1` [Caffeic acid], the Km with PPO I worked out at 3810 ± 170 µM.
As for `Oc1ccccc1O` [Catechol], the values for the Km in the assay with PPO II and in the assay with PPO I were 940 ± 40 µM and 1760 ± 80 µM, respectively.
For `O=C(O)c1cc(O)c(O)c(O)c1` [Gallic acid], in that order: 5000 ± 230 µM and 2250 ± 100 µM.

The values are drawn from article PMC6560442, “Biochemical Properties of Polyphenol Oxidases from Ready-to-Eat Lentil (Lens culinaris Medik.) Sprouts and Factors Affecting Their Activities: A Search for Potent Tools Limiting Enzymatic Browning” (Foods, 2019).
